Results from ChEMBL document CHEMBL4433219, “EC18 as a Tool To Understand the Role of HCN4 Channels in Mediating Hyperpolarization-Activated Current in Tissues” (ACS Med Chem Lett, 2019).
Activity calls are given as the source filed them. No cut-off for these calls is given here.

Key:
[1] = tested on: Cardiac muscle of left ventricle; assay: (§1) Effect on cardiac electrophysiological profile in Mongrel perfused dog heart left ventricular muscle stimulated at basic cycle length of 1000 milliseconds assessed as Vmax at 10 uM measured after 25 mins by glass capillary microelectrode based electrophysiology assay (reference value: 244.6 +/- 30.87 V/s); assay type: functional, Canis lupus familiaris
[2] = Negative chronotropic activity at HCN4 in guinea-pig spontaneously beating isolated atria; conditions: Cavia porcellus
[3] = tested on: Cardiac muscle of left ventricle; assay: as §1, with “as maximum diastolic potential” for “as Vmax”, “at 1” for “at 10”, “value: -83.8” for “value: 244.6”, “+/- 2.28 mV)” for “+/- 30.87 V/s)”; assay type: functional, Canis lupus familiaris
[4] = tested on: Cardiac muscle of left ventricle; assay: as §1, with “as conduction time” for “as Vmax”, “at 1” for “at 10”, “value: 4.8” for “value: 244.6”, “+/- 0.60 milliseconds)” for “+/- 30.87 V/s)”; assay type: functional, Canis lupus familiaris
[5] = Selectivity ratio of EC50 for human HCN1 to EC50 for mouse HCN4
[6] = tested on: Cardiac muscle of left ventricle; assay: as §1, with “as action potential time duration” for “as Vmax”, “at 75% of repolarization at 1” for “at 10”, “value: 199.7” for “value: 244.6”, “+/- 16.87 milliseconds)” for “+/- 30.87 V/s)”; assay type: functional, Canis lupus familiaris
[7] = tested on: Cardiac muscle of left ventricle; assay: as §1, with “at 1” for “at 10”; assay type: functional, Canis lupus familiaris
[8] = tested on: Cardiac muscle of left ventricle; assay: as §1, with “maximum diastolic potential” for “Vmax”, “-83.8” for “244.6”, “2.28 mV)” for “30.87 V/s)”; assay type: functional, Canis lupus familiaris
[9] = tested on: Cardiac muscle of left ventricle; assay: as §1, with “as action potential time duration” for “as Vmax”, “at 25% of repolarization at 1” for “at 10”, “value: 131.7” for “value: 244.6”, “+/- 13.1 milliseconds)” for “+/- 30.87 V/s)”; assay type: functional, Canis lupus familiaris
[10] = tested on: Cardiac muscle of left ventricle; assay: as §1, with “action potential time duration at 75% of repolarization” for “Vmax”, “199.7” for “244.6”, “16.87 milliseconds)” for “30.87 V/s)”; assay type: functional, Canis lupus familiaris
[11] = tested on: Cardiac muscle of left ventricle; assay: as §1, with “conduction time” for “Vmax”, “4.8” for “244.6”, “0.60 milliseconds)” for “30.87 V/s)”; assay type: functional, Canis lupus familiaris
Mus musculus = species on record: Mus musculus; assay: Effect on transient A type potassium channel in C57BL/6J mouse thalamocortical relay neuron assessed as effect on early transient current at 10 uM by whole cell patch clamp assay relative to control
[12] = molecular target: T1, Potassium/sodium hyperpolarization-activated cyclic nucleotide-gated channel 4 (Mus musculus) (UniProt O70507); assay: Inhibition of HCN4 in C57BL/6J mouse thalamocortical relay neuron assessed as reduction in hyperpolarization current at 30 uM at holding potential of -120 mV by whole-cell patch clamp assay relative to control
T1 sequence (whole entry): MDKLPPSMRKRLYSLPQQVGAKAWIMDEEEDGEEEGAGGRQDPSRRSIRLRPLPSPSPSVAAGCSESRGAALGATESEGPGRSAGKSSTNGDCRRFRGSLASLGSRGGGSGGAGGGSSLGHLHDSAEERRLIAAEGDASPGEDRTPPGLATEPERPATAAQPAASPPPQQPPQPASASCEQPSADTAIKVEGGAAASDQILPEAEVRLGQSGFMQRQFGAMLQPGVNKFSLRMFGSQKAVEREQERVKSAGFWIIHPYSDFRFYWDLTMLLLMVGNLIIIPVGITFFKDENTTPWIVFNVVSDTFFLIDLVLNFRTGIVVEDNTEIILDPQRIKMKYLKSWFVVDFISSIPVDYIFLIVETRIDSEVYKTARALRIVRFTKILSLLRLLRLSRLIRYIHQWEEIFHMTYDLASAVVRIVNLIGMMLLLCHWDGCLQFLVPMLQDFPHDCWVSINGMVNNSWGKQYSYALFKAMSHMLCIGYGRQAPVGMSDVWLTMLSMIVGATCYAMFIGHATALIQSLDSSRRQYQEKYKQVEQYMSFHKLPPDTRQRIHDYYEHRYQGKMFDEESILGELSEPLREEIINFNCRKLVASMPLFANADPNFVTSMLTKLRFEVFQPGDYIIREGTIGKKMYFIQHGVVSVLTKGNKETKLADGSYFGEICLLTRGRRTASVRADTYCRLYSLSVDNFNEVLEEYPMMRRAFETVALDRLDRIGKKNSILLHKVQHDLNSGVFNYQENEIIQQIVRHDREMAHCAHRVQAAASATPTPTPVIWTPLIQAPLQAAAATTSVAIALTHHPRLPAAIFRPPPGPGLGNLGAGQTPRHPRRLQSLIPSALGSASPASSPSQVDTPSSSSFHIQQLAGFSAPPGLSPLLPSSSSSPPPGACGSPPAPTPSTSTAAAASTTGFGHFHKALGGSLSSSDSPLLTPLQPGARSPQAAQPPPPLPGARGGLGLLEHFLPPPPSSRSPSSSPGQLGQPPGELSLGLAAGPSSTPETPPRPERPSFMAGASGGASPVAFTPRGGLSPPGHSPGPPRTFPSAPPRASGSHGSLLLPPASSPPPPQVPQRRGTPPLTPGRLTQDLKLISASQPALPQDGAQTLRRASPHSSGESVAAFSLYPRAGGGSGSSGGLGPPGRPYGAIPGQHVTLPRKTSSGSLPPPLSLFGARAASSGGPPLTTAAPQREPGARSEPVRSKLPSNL

[13] = tested on: Cardiac muscle of left ventricle; assay: as §1, with “as action potential time duration” for “as Vmax”, “at 50% of repolarization at 1” for “at 10”, “value: 176” for “value: 244.6”, “+/- 16.36 milliseconds)” for “+/- 30.87 V/s)”; assay type: functional, Canis lupus familiaris
[14] = molecular target: T2, Potassium/sodium hyperpolarization-activated cyclic nucleotide-gated channel 4 (Mus musculus, UniProt O70507); assay: Inhibition of HCN4 in C57BL/6J mouse thalamocortical relay neuron assessed as reduction in hyperpolarization current at holding potential of -120 mV by whole-cell patch clamp assay
T2 sequence (O70507 whole entry): T1 sequence (whole entry)

Cavia porcellus = species on record: Cavia porcellus; assay: Inhibition of HCN4 in guinea pig single sinoatrial node assessed as reduction in hyperpolarization activated current at 10 uM at holding potential of -120 mV by patch clamp assay relative to control
[15] = molecular target: Potassium/sodium hyperpolarization-activated cyclic nucleotide-gated channel 1 (Mus musculus, UniProt O88704); assay: Inhibition of mouse HCN1 expressed in HEK293 cells assessed as reduction in hyperpolarization activated current at holding potential of -80 mV by patch clamp assay; assay type: cell-based
[16] = tested on: Cardiac muscle of left ventricle; assay: as §1, with “action potential amplitude” for “Vmax”, “104.1” for “244.6”, “2.7 mV)” for “30.87 V/s)”; assay type: functional, Canis lupus familiaris
[17] = tested on: Cardiac muscle of left ventricle; assay: as §1, with “action potential time duration at 50% of repolarization” for “Vmax”, “176” for “244.6”, “16.36 milliseconds)” for “30.87 V/s)”; assay type: functional, Canis lupus familiaris
[18] = tested on: Cardiac muscle of left ventricle; assay: as §1, with “as action potential time duration” for “as Vmax”, “at 90% of repolarization at 1” for “at 10”, “value: 212.5” for “value: 244.6”, “+/- 16.25 milliseconds)” for “+/- 30.87 V/s)”; assay type: functional, Canis lupus familiaris
[19] = tested on: Cardiac muscle of left ventricle; assay: as §1, with “action potential time duration at 25% of repolarization” for “Vmax”, “131.7” for “244.6”, “13.1 milliseconds)” for “30.87 V/s)”; assay type: functional, Canis lupus familiaris
[20] = tested on: Cardiac muscle of left ventricle; assay: as §1, with “as action potential time duration” for “as Vmax”, “at 10% of repolarization at 1” for “at 10”, “value: 69.9” for “value: 244.6”, “+/- 10.84 milliseconds)” for “+/- 30.87 V/s)”; assay type: functional, Canis lupus familiaris

Sequence of Potassium/sodium hyperpolarization-activated cyclic nucleotide-gated channel 1 (O88704 whole entry): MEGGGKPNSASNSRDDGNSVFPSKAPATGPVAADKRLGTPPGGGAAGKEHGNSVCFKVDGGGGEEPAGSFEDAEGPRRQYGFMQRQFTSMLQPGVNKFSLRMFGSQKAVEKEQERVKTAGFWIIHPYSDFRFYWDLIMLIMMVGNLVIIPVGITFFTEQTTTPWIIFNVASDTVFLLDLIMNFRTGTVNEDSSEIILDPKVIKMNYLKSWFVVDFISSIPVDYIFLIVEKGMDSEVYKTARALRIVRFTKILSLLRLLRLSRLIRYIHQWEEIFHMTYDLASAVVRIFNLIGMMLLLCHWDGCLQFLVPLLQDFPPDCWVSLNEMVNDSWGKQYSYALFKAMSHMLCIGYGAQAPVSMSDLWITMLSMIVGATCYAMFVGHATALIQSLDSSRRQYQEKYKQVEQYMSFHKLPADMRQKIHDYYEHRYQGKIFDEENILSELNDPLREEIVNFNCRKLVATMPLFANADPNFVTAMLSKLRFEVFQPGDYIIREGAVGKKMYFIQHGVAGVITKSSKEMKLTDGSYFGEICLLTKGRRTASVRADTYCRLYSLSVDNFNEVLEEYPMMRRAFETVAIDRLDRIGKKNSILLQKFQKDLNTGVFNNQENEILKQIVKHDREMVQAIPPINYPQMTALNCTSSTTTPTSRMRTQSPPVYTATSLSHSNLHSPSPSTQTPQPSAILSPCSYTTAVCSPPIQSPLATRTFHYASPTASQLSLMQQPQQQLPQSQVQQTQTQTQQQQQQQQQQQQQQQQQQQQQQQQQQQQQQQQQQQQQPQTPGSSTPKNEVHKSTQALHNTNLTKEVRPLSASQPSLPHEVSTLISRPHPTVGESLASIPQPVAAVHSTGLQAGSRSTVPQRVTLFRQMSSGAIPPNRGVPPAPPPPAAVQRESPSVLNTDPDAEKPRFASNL

- IC50 [2]: 9.9 µM
- Ratio EC50 [5]: 5
- Activity (Mus musculus): inactive
- inhibition [12]: 91.3%
- EC50 [14]: 11 µM
- inhibition (Cavia porcellus): 67%
- EC50 [15]: 21 µM
Structure (SMILES): COc1ccc(CCN(C)[C@@H]2CCC[C@H](N3CCc4cc(OC)c(OC)cc4CC3=O)C2)cc1OC (racemic)
- Activity [1]: 140.6 V/s
- Activity [3]: -84 mV
- Time [4]: 4.7 ms
- Time [6]: 191.9 ms
- Activity [7]: 232.9 V/s
- Activity [8]: -83 mV
- Time [9]: 121.6 ms
- Time [10]: 206 ms
- Time [11]: 5 ms
- Time [13]: 168.3 ms
- Activity [16]: 102.3 mV
- Time [17]: 179.9 ms
- Time [18]: 204.9 ms
- Time [19]: 125.1 ms
- Time [20]: 58.6 ms
